Measured values as given in patent US20250295792A1, “POLYETHYLENE GLYCOL-MODIFIED FORM OF KININ OR DERIVATIVE THEREOF AND PHARMACEUTICAL USE THEREOF” (ZonHon Biopharma Institute, Inc., priority 2022, published 2025).
Like-named read-outs stand apart in the source and are kept apart here. Where a SMILES comes first, the peptide text is derived from it. Where no end group is shown, it is not given here. [ ]: non-standard residue; d: D form. M‑SPA‑5K = straight-chain monomethoxy PEG succinimidyl propionate, about 5 kDa; 2Thi = N[C@@H](Cc1cccs1)C(=O)O

Legend:
B2 receptor = target: T1, B2 receptor (Homo sapiens, UniProt P30411); assay: B2 receptor reporter gene assay in B2-NFAT-CHO-K1 cells; format: cell-based; details: Table 3-1; relative activity calculated from EC50, wild type Lys-BK = 100%
T1 construct: expressed in transfected cells; host or cells: CHO-K1
T1 sequence (P30411 1-391): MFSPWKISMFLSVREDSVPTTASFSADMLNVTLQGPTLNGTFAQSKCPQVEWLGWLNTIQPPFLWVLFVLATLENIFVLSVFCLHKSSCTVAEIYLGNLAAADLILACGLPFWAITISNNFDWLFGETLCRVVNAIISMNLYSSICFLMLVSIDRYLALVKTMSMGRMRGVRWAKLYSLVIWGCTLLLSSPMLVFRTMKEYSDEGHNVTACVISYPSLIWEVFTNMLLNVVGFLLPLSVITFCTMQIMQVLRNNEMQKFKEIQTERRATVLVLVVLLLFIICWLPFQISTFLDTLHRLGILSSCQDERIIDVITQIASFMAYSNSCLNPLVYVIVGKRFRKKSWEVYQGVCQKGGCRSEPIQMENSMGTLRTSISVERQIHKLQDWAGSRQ
Source text: The pharmacological action of lysyl bradykinin/bradykinin in vivo is achieved by binding to B2 receptors and activating downstream signaling pathways
The cell line B2-NFAT-CHO-K1 stably transfected with B2 receptor reporter gene was constructed based on CHO-K1 host cells and the cell library was constructed. The B2-NFAT-CHO-K1 cell library was used to evaluate the binding activity of lysyl bradykinin/bradykinin or its variants or PEG modified products to B2 receptor in vitro.
Detection methods: The cells were cultured in 96-well plates at 5×10^4 cells/well, 37° C., 5% CO2 for 16-20 hours, and then gradient diluted standard and test solutions were added. After 5 hours, added Bio-Lite luciferase detection reagent and the chemiluminescence intensity was measured. GraphPad was used to make four-parameter equation curve and calculate the relative activity according to the EC50 value.
(§1) In vitro B2-receptor affinity activity and activity of activating downstream signaling pathway of PEG conjugates of lysyl bradykinin and its variants were tested, as in Example 3.

[1] = Stability in SD rat serum system in vitro (UPLC-RP)
Protocol: Assess the stability of lysyl bradykinin/bradykinin by evaluating its stability in serum system in vitro. 2 mg/ml peptide and SD rat serum were mixed at volume ratio of 85:15, incubated at 37° C. for 30 min, 60 min, 90 min, 120 min, 180 min, etc, terminate by adding 3% trichloroacetic acid (50% volume of the above mixture system with peptide and serum) and effectively remove matrix interference in the serum. Further monitor the degradation of peptide samples in the serum system to evaluate its stability basing on UPLC-RP-UV214 nm method. RP analysis method: Protein BEH C4 2.1×150 mm as chromatographic column, 1.7 μm, column temperature 30° C., mobile phase A: 0.1% TFA/H2O, mobile phase B: 0.1% TFA/ACN, gradient: 0-5 min, 5% B; 5-10 min, 5-40% B; 10-30 min, 40-60% B; 30-32 min, 60-100% B; 32 to 35 min, 5% B.
The stability of PEG conjugates of lysyl bradykinin and its variants was indirectly evaluated by evaluating their stability in serum system in vitro, as determined in Example 2.

[2] = system: middle cerebral artery occlusion (MCAO) cerebral ischemia-reperfusion model; assay: MCAO cerebral ischemia-reperfusion model: neurological deficit score and cerebral infarct size; format: in vivo, SD rats; details: for Neurological deficit symptoms compared with the model group (in words): Example 7, FIG. 7a; for Neurological deficit symptoms compared with the model group (in words) / Cerebral infarct size compared with the model group (in words): intravenous, Edaravone 6 mg/kg, conjugate 3 mg/kg; for Cerebral infarct size compared with the model group (in words): Example 7, FIG. 7b
Protocol: SD rats, male, SPF grade, weighing 270-300 g. The middle cerebral artery occlusion (MCAO) of cerebral ischemia-reperfusion model was prepared by using the intraluminal suture method in rats. Animals were anesthetized with gas (isoflurane), and then fixed them in a supine position. The skin was disinfected, and the right common carotid artery, external carotid artery, and internal carotid artery were separated from the midline incision in the neck. The vagus nerve was gently peeled off, and the external carotid artery was ligated and cut. The common carotid artery was clamped near the proximal end, and an incision was made from the distal end of the ligature line of the external carotid artery. The suture (model 2438-A5, purchased from Beijing Xinong Technology Co., LTD.) was inserted and passed through the bifurcation of the common carotid artery into the internal carotid artery. The suture was then slowly inserted until slight resistance was encountered (about 20 mm from the bifurcation), blocking the blood supply to the middle cerebral artery. The neck skin was sutured, disinfected, and the rat was returned to the cage. After 90 minutes of ischemia, the rat was anesthetized again, fixed on the rat board, and the neck skin was cut open to find the suture, which was gently removed. Reperfusion was performed, and the neck skin was sutured, disinfected, and the rat was returned to the cage for feeding.
The rats were divided into sham operation group, model group (administered PBS intravenously), Edaravone group (administered intravenously, 6 mg/kg), and PEG conjugate of lysyl bradykinin group (administered intravenously, 3 mg/kg). The rats were injected once after 2 hours of reperfusion.
The modified Bederson method was used to evaluate neurological defect symptoms.
Animals were anesthetized with 10% chloral hydrate, the brain tissue was removed, the olfactory bulbs, cerebellum and lower brainstem were removed, and the bloodstain on brain surface was washed with […]. After removing surface residual water, the brain tissue was placed at −80° C. for 7 minutes, took out and cut into coronal sections perpendicular to the visual cross plane, and sliced at intervals of 2 mm to the posterior direction. The brain slices were placed in fresh TTC (20 g/L) dye solution prepared with SPSS at 37° C. for 90 minutes. Normal brain tissue was stained deep red, while ischemic brain tissue appeared pale. After washing with SPSS, the brain slices were quickly arranged in sequence from front to back, residual water on the surface was absorbed, and photographed. The image analysis software (Image Tool) was used to delineate the ischemic area (white area) and the right side area on the photos for statistical analysis. The percentage of cerebral infarction area was calculated using the following formula:
Cerebral infarction area (%)=100×total ischemic area/total right hemisphere area.
Except for Table 7-6, the dosage of the other groups was 3 mg/kg (all the dosage was calculated based on peptides). The administration methods included intravenous injection and subcutaneous injection, and the injection was given once after 2 hours of reperfusion.
Based on the same model, the effect of PEG conjugate of lysyl bradykinin variant was investigated by both intravenous and subcutaneous injection at dose of […] (the dose was calculated based on polypeptide). […]

[3] = system: p-CREB and p-ERK1/2, B2 receptor downstream signals; assay: Western blot of p-ERK1/2 and p-CREB in CHO-K1 cells overexpressing B2 receptor; format: cell-based; details: FIG. 5
Protocol: as §1

[4] = subcutaneous 30 mg in adults; cited from earlier work
[5] = Table 2-1, 2 mg/ml peptide : SD rat serum 85:15 v/v, 37° C., sampled 30-180 min

Lys-BKm08: variant peptide PG{THI}SPFR, SEQ ID NO 9 (PG[2Thi]SPFR)
Relative affinity activity (B2 receptor): <10%

Lys-BKm10: variant peptide SPFR, SEQ ID NO 11
Relative affinity activity (B2 receptor): 0%

N=C(N)NCCC[C@H](NC(=O)[C@H](Cc1ccccc1)NC(=O)[C@@H]1CCCN1C(=O)[C@H](CO)NC(=O)[C@H](Cc1cccs1)NC(=O)CNC(=O)[C@@H]1CCCN1C(=O)[C@@H]1CCCN1C(=O)[C@H](CCCNC(=N)N)NC(=O)[C@H](CCCNC(=N)N)NC(=O)[C@H](CCCNC(=N)N)NC(=O)[C@@H](N)CS)C(=O)O [Lys-BKm16] (H-CRRRPPG[2Thi]SPFR-OH; N-terminus and C-terminus assumed)
Residual time in serum system [1, 5]: 60~90 min

N=C(N)NCCC[C@H](NC(=O)[C@H](Cc1ccccc1)NC(=O)[C@@H]1CCCN1C(=O)[C@H](CO)NC(=O)[C@H](Cc1cccs1)NC(=O)CNC(=O)[C@@H]1CCCN1C(=O)[C@@H]1CCCN1C(=O)[C@H](CCCNC(=N)N)NC(=O)[C@H](CCCCN)NC(=O)[C@H](CCCNC(=N)N)NC(=O)[C@H](Cc1ccccc1)NC(=O)[C@@H]1CCCN1C(=O)[C@H](CO)NC(=O)[C@H](Cc1cccs1)NC(=O)CNC(=O)[C@@H]1CCCN1C(=O)[C@@H]1CCCN1C(=O)[C@H](CCCNC(=N)N)NC(=O)[C@@H](N)CCCCN)C(=O)O [Lys-BKm14] (H-KRPPG[2Thi]SPFRKRPPG[2Thi]SPFR-OH; N-terminus and C-terminus assumed)
Residual time in serum system [1, 5]: 90 to 120 min

Lys-BKm13-SPA5K: Lys-BKm13 N-terminally single-modified with M-SPA-5K PEG ({M‑SPA‑5K}-CRRPPG[2Thi]SPFR)
Neurological deficit symptoms and cerebral infarction area compared with the model group (in words) ([2]; Example 9, intravenous and subcutaneous injection 4.5 mg/kg): significant improvement in neurological deficit symptoms and cerebral infarction area
Neurological deficit symptom score ([2]; Table 7-4, intravenous injection 3 mg/kg, model group 3.00 ± 0.10): 2.13 ± 0.15
Cerebral infarct size (%) ([2]; Table 7-4, intravenous injection 3 mg/kg, model group 38.79 ± 2.01): 23.54 ± 1.99 %
Neurological deficit symptom score ([2]; Table 7-6, subcutaneous injection 4.5 mg/kg, model group 3.00 ± 0.09): 2.69 ± 0.12
Cerebral infarct size (%) ([2]; Table 7-6, subcutaneous injection 4.5 mg/kg, model group 41.40 ± 1.83): 36.07 ± 2.47%
Neurological deficit symptom score ([2]; Table 8-1, intravenous injection 4.5 mg/kg, model group 2.80 ± 0.11): 2.19 ± 0.16
Cerebral infarct size (%) ([2]; Table 8-1, intravenous injection 4.5 mg/kg, model group 38.45 ± 2.16): 25.16 ± 2.36 %
Neurological deficit symptom score ([2]; Table 8-1, subcutaneous injection 4.5 mg/kg, model group 2.80 ± 0.11): 2.25 ± 0.17
Cerebral infarct size (%) ([2]; Table 8-1, subcutaneous injection 4.5 mg/kg, model group 38.45 ± 2.16): 26.06 ± 2.69 %
Activity of activating phosphorylation of ERK1/2 and CREB, PEG conjugates (in words) [3]: highest activity among different peptide variants

N=C(N)NCCC[C@H](NC(=O)[C@H](Cc1ccccc1)NC(=O)[C@@H]1CCCN1C(=O)[C@H](CO)NC(=O)[C@H](Cc1cccs1)NC(=O)CNC(=O)[C@@H]1CCCN1C(=O)[C@@H]1CCCN1C(=O)[C@H](CCCNC(=N)N)NC(=O)[C@H](CCCNC(=N)N)NC(=O)[C@@H](N)CCCCN)C(=O)O [Lys-BKm11] (H-KRRPPG[2Thi]SPFR-OH; N-terminus and C-terminus assumed)
Residual time in serum system [1, 5]: 60~90 min

CC1=NN(c2ccccc2)C(=O)C1 [Edaravone, reference compound]
Neurological deficit symptoms compared with the model group (in words) [2]: significant improvement in neurological deficit symptoms
Cerebral infarct size compared with the model group (in words) [2]: significant improvement in cerebral infarct size
Neurological deficit symptom score ([2]; Table 6-1, intravenous 6 mg/kg once 2 h after reperfusion, Mean ± SE, model group 3.13 ± 0.09): 2.40 ± 0.13
Cerebral infarct size (%) ([2]; Table 6-2, intravenous 6 mg/kg, Mean ± SE, model group 48.50 ± 1.66): 34.12 ± 2.35 %

Lys-BKm09: variant peptide {THI}SPFR, SEQ ID NO 10 ([2Thi]SPFR)
Relative affinity activity (B2 receptor): 0%

Lys-BK-SPA5K: wild-type Lys-BK N-terminally single-modified with straight-chain M-SPA-5K PEG (about 5 kDa)
Neurological deficit symptoms compared with the model group (in words) [2]: significant improvement in neurological deficit symptoms
Cerebral infarct size compared with the model group (in words) [2]: significant improvement in cerebral infarction area
Neurological deficit symptom score ([2]; Table 6-1, intravenous 3 mg/kg once 2 h after reperfusion, Mean ± SE, model group 3.13 ± 0.09): 2.38 ± 0.15
Cerebral infarct size (%) ([2]; Table 6-2, intravenous 3 mg/kg, Mean ± SE, model group 48.50 ± 1.66): 34.84 ± 2.90 %
Neurological deficit symptom score ([2]; Table 7-1, intravenous injection 3 mg/kg, model group 2.69 ± 0.12): 2.13 ± 0.18
Cerebral infarct size (%) ([2]; Table 7-1, intravenous injection 3 mg/kg, model group 38.73 ± 1.99): 24.73 ± 3.15 %
Neurological deficit symptom score ([2]; Table 9-1, oral administration once 6 mg/kg, model group 2.12 ± 0.17): 1.60 ± 0.17
Cerebral infarct size (%) ([2]; Table 9-1, oral administration once 6 mg/kg, model group 29.23 ± 4.32): 22.82 ± 2.56%
Residual time in serum system [1]: >360 min

NC(N)=NCCC[C@@H](N)C(=O)N[C@@H](CCCN=C(N)N)C(=O)N1CCC[C@H]1C(=O)N1C[C@H](O)C[C@H]1C(=O)NCC(=O)N[C@@H](Cc1cccs1)C(=O)N[C@@H](CO)C(=O)N1Cc2ccccc2C[C@@H]1C(=O)N1[C@H](C(=O)N[C@@H](CCCN=C(N)N)C(=O)O)C[C@@H]2CCCC[C@@H]21 [icatibant]
peak blood concentration [4]: 405 ng/mL
time to peak blood concentration [4]: 1.79 h
